Results published in PubChem BioAssay (NCI).
Where “and” joins values, the source holds several entries; their conditions need not be identical. Equal values may be shown once.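 A five-concentration, 48-hour dose response in 96-well plates underlies each endpoint, interpolated linearly between surrounding concentrations. Here, GI50 denotes the concentration required for 50% inhibition of growth. At the TGI there is no net growth.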

Assays:
Assay in all cases: inhibition of tumour cell growth, NCI panel, 48 h
[1] = system: CAKI-1 renal
[2] = system: DMS 114 small cell lung
[3] = system: HT29 colon
[4] = system: M19-MEL melanoma
[5] = system: OVCAR-5 ovarian
[6] = system: SN12C renal
[7] = system: SNB-75 CNS
[8] = system: U251 CNS
[9] = system: BT-549 breast
[10] = system: HS 578T breast
[11] = system: T-47D breast

Structure (SMILES): Cn1ccnc1CCc1ccc(Cl)c(Cl)c1
- TGI [1]: > 100 µM
- TGI [2]: > 100 µM
- TGI [3]: > 100 µM
- TGI [4]: > 100 µM
- TGI [5]: > 100 µM
- TGI [6]: > 100 µM
- TGI [7]: > 100 µM
- TGI [8]: > 100 µM

Structure (SMILES): O=[N+]([O-])c1ccc([N+]2=NC(c3ccccc3)=NN(c3ccccc3)C2)cc1
- TGI [1]: > 100 µM
- TGI [2]: 94.1 µM
- TGI [3]: > 100 µM
- TGI [4]: > 100 µM
- TGI [5]: > 100 µM
- TGI [6]: > 100 µM
- TGI [7]: > 100 µM
- TGI [8]: > 100 µM

Structure (SMILES): CCCc1nnc2sc(COc3cc(Cl)c(OCc4nn5c(CCC)nnc5s4)cc3Cl)nn12
- TGI [9]: > 100 µM
- TGI [1]: > 100 µM
- TGI [10]: > 100 µM
- TGI [3]: > 100 µM
- TGI [5]: > 100 µM
- TGI [6]: > 100 µM
- TGI [7]: 45.3 µM
- TGI [11]: 63.5 µM
- TGI [8]: > 100 µM

Structure (SMILES): CCOC(=O)C(NC(=O)CC)(Nc1ccc(F)c(Cl)c1)C(F)(F)F (stereo not drawn)
- TGI [9]: > 100 µM
- TGI [1]: > 100 µM
- TGI [10]: > 100 µM
- TGI [3]: > 100 µM
- TGI [5]: > 100 µM
- TGI [6]: > 100 µM
- TGI [7]: > 100 µM
- TGI [11]: > 100 µM
- TGI [8]: > 100 µM

Structure (SMILES): CCCC(=O)NC(Nc1ccc(F)cc1)(C(F)(F)F)C(F)(F)F
- TGI [9]: > 100 µM
- TGI [1]: > 100 µM
- TGI [10]: > 100 µM
- TGI [3]: > 100 µM
- TGI [5]: > 100 µM
- TGI [6]: > 100 µM
- TGI [7]: > 100 µM
- TGI [11]: > 100 µM
- TGI [8]: > 100 µM

Structure (SMILES): C[n+]1c2ccccc2c(/C=N\NS(=O)(=O)c2ccc(Cl)cc2)c2ccccc21
- TGI [1]: > 100 µM
- TGI [2]: > 100 µM
- TGI [3]: > 100 µM
- TGI [4]: > 100 µM
- TGI [5]: > 100 µM
- TGI [6]: > 100 µM
- TGI [7]: > 100 µM
- TGI [8]: > 100 µM

Structure (SMILES): COc1ccc([C@]23CCN4COC[C@@H]([C@H]42)C2(CC3)OCC(C)(C)CO2)cc1OC
- TGI [9]: > 100 µM
- TGI [1]: > 100 µM
- TGI [10]: > 100 µM
- TGI [3]: > 100 µM
- TGI [5]: > 100 µM
- TGI [6]: > 100 µM
- TGI [7]: > 100 µM
- TGI [11]: > 100 µM
- TGI [8]: > 100 µM

Structure (SMILES): Cc1ccc(S(=O)(=O)n2ccc(-c3ccc4ccn(S(=O)(=O)c5ccc(C)cc5)c4c3)c2)cc1
- TGI [9]: > 100 µM
- TGI [1]: > 100 µM
- TGI [10]: > 100 µM
- TGI [3]: > 100 µM
- TGI [5]: > 100 µM
- TGI [6]: > 100 µM
- TGI [7]: > 100 µM
- TGI [11]: > 100 µM
- TGI [8]: > 100 µM

Structure (SMILES): COC1(c2cccs2)c2ccccc2C(OC)(c2cccs2)c2ccccc21 (stereo not drawn)
- TGI [9]: > 100 µM
- TGI [1]: > 100 µM
- TGI [10]: 19.8 µM
- TGI [3]: > 100 µM
- TGI [5]: > 100 µM
- TGI [6]: > 100 µM
- TGI [7]: > 100 µM
- TGI [11]: > 100 µM
- TGI [8]: > 100 µM

Structure (SMILES): N=c1oc2ccccc2cc1-c1nc2ccccc2c(=O)[nH]1
- TGI [9]: > 100 µM
- TGI [1]: > 100 µM
- TGI [10]: 84.3 µM
- TGI [3]: > 100 µM
- TGI [5]: > 100 µM
- TGI [6]: > 100 µM
- TGI [7]: 25.3 µM
- TGI [11]: > 100 µM
- TGI [8]: > 100 µM

Structure (SMILES): COC(=O)NC(Cc1ccccc1)NC(C)=O (stereo not drawn)
- TGI [9]: > 100 µM
- TGI [1]: > 100 µM
- TGI [10]: > 100 µM
- TGI [3]: > 100 µM
- TGI [5]: > 100 µM
- TGI [6]: > 100 µM
- TGI [7]: > 100 µM
- TGI [11]: > 100 µM
- TGI [8]: > 100 µM

Structure (SMILES): O=[N+]([O-])c1ccc(N2N=C(c3ccc4ccccc4c3O)CC2c2ccc(Cl)cc2)c([N+](=O)[O-])c1 (stereo not drawn)
- TGI [9]: > 100 µM
- TGI [1]: > 100 µM
- TGI [10]: > 100 µM
- TGI [3]: > 100 µM
- TGI [5]: > 100 µM
- TGI [6]: > 100 µM
- TGI [7]: > 100 µM
- TGI [11]: > 100 µM
- TGI [8]: > 100 µM

Structure (SMILES): COc1cc(CCN(C)C)cc(OC)c1OC
- TGI [9]: > 100 µM
- TGI [1]: > 100 µM
- TGI [10]: > 100 µM
- TGI [3]: > 100 µM
- TGI [5]: > 100 µM
- TGI [6]: > 100 µM
- TGI [7]: > 100 µM
- TGI [11]: > 100 µM
- TGI [8]: > 100 µM

Structure (SMILES): CCN(CC)CCOC(=O)Cc1cccc2c(=O)cc(-c3ccccc3)oc12
- TGI [9]: 61.7 µM
- GI50 [1]: 252 µM
- TGI [2]: 137 µM
- TGI [10]: 62.5 µM
- GI50 [3]: 530 µM
- TGI [4]: > 223 µM
- GI50 [5]: 137 µM
- TGI [5]: 62.5 µM and > 197 µM
- GI50 [6]: 92.8 µM
- TGI [6]: 62.5 µM and > 320 µM
- GI50 [7]: 13 µM
- TGI [7]: 50.1 µM and 126 µM
- TGI [11]: 50.2 µM
- GI50 [8]: 57.9 µM
- TGI [8]: 62.5 µM and > 121 µM

Structure (SMILES): CCOC(=O)C(=O)CC(=O)C1=C(c2ccccc2OC)CC(c2cccs2)=CC1=O
- TGI [9]: > 100 µM
- TGI [1]: > 100 µM
- TGI [10]: > 100 µM
- TGI [3]: > 100 µM
- TGI [5]: > 100 µM
- TGI [6]: > 100 µM
- TGI [7]: 49.8 µM
- TGI [11]: > 100 µM
- TGI [8]: > 100 µM

Structure (SMILES): CCCN(CCC)C1CCc2c(ccc3cc[nH]c23)C1 (stereo not drawn)
- TGI [9]: > 100 µM
- TGI [1]: > 100 µM
- TGI [10]: > 100 µM
- TGI [3]: > 100 µM
- TGI [5]: > 100 µM
- TGI [6]: > 100 µM
- TGI [7]: > 100 µM
- TGI [11]: > 100 µM
- TGI [8]: > 100 µM

Structure (SMILES): N#CC[N+]1(Cc2ccccn2)CCCC1
- TGI [9]: > 100 µM
- TGI [1]: > 100 µM
- TGI [10]: > 100 µM
- TGI [3]: > 100 µM
- TGI [5]: > 100 µM
- TGI [6]: > 100 µM
- TGI [7]: > 100 µM
- TGI [11]: > 100 µM
- TGI [8]: > 100 µM

Structure (SMILES): O=[N+]([O-])c1ccc(O)c(/C=N/c2nc(-c3ccccc3)cs2)c1
- TGI [9]: 46.4 µM
- TGI [1]: > 100 µM
- TGI [10]: 74.6 µM
- TGI [3]: > 100 µM
- TGI [5]: > 100 µM
- TGI [6]: > 100 µM
- TGI [7]: 75.5 µM
- TGI [11]: 91.6 µM
- TGI [8]: > 100 µM

Structure (SMILES): CC12ON(P(=O)(c3ccccc3)c3ccccc3)C(C)(c3ccccc31)c1ccccc12
- TGI [9]: > 100 µM
- TGI [1]: > 100 µM
- TGI [10]: > 100 µM
- TGI [3]: > 100 µM
- TGI [5]: > 100 µM
- TGI [6]: > 100 µM
- TGI [7]: > 100 µM
- TGI [11]: > 100 µM
- TGI [8]: > 100 µM

Structure (SMILES): O=C(c1ccc(O)c([N+](=O)[O-])c1)c1ccc(O)c([N+](=O)[O-])c1
- TGI [9]: > 100 µM
- TGI [1]: > 100 µM
- TGI [10]: > 100 µM
- TGI [3]: > 100 µM
- TGI [5]: > 100 µM
- TGI [6]: > 100 µM
- TGI [7]: 85.7 µM
- TGI [11]: > 100 µM
- TGI [8]: > 100 µM

Structure (SMILES): COc1ccc2c(c1)CCN1CCCc3ccccc3C21 (stereo not drawn)
- TGI [9]: 86.6 µM
- TGI [1]: > 100 µM
- TGI [10]: > 100 µM
- TGI [3]: > 100 µM
- TGI [5]: > 100 µM
- TGI [6]: > 100 µM
- TGI [7]: 78.5 µM
- TGI [11]: > 100 µM
- TGI [8]: > 100 µM

Structure (SMILES): COC12C=CC(C=C1C#N)CC2 (stereo not drawn) (tested in a mixture with another compound)
- TGI [9]: > 100 µM
- TGI [1]: > 100 µM
- TGI [10]: > 100 µM
- TGI [3]: > 100 µM
- TGI [5]: > 100 µM
- TGI [6]: > 100 µM
- TGI [7]: > 100 µM
- TGI [11]: > 100 µM
- TGI [8]: > 100 µM

Structure (SMILES): COc1cccc(-c2nccc3c(OCc4ccccc4)c(OC)c(OC)cc23)c1
- TGI [2]: > 100 µM
- TGI [3]: > 100 µM
- TGI [4]: > 100 µM
- TGI [5]: > 100 µM
- TGI [6]: > 100 µM
- TGI [7]: > 100 µM
- TGI [8]: > 100 µM
